Reference: paper PMC6385482 (2018)

Key:
[1] = test system: hpDNA (hairpin DNA, 28 bp as printed) (DNA, hairpin) CGCGAATTCGCGTTTTCGCGAATTCGCG; assay: fluorescence titration, single-site fit; conditions: PBS (ion concentrations not given), PBS pH 7.4, room temperature, 1 h
[2] = test system: hpDNA (hairpin DNA, 28 bp as printed) (DNA, hairpin) CGCGAATTCGCGTTTTCGCGAATTCGCG; assay: fluorescence titration, two-site fit with offset; conditions: PBS (ion concentrations not given); PBS pH 7.4, room temperature, 1 h; 10 nM compound; site 1 of 2

Kd1 ([1]; 10 nM compound) [nM] | SMILES | other results
 | CCOc1ccc(-c2nc3ccc(-c4nc5ccc(N6CCN(C)CC6)cc5[nH]4)cc3[nH]2)cc1 | Kd1 ([1]; 4 nM compound): 2.6 ± 0.4 nM
4374 ± 192 | CN1CCN(c2ccc3nc(-c4ccc5nc(-c6ccc(OCCCCNC(=O)c7ccc8c(c7)C(=O)OC87c8ccc(N(C)C)c[c]8[Ge]([CH3])([CH3])[c]8cc(N(C)C)ccc87)cc6)[nH]c5c4)[nH]c3c2)CC1 | 
347 ± 22 | CN1CCN(c2ccc3nc(-c4ccc5nc(-c6ccc(OCCCCNC(=O)c7ccc8c(c7)C(=O)OC87c8ccc(N(C)C)cc8C(C)(C)c8cc(N(C)C)ccc87)cc6)[nH]c5c4)[nH]c3c2)CC1 | 
365 ± 12 | CN1CCN(c2ccc3nc(-c4ccc5nc(-c6ccc(OCCCCNC(=O)c7ccc8c(c7)C(=O)OC87c8ccc(N(C)C)cc8Oc8cc(N(C)C)ccc87)cc6)[nH]c5c4)[nH]c3c2)CC1 | 
4799 ± 201 | CN1CCN(c2ccc3nc(-c4ccc5nc(-c6ccc(OCCCCNC(=O)c7ccc8c(c7)C(=O)OC87c8ccc(N(C)C)cc8[Si](C)(C)c8cc(N(C)C)ccc87)cc6)[nH]c5c4)[nH]c3c2)CC1 | 
572 ± 26 | CN1CCN(c2ccc3nc(-c4ccc5nc(-c6ccc(OCCCCNC(=O)c7ccc8c(c7)C7(OC8=O)c8ccc(N(C)C)c[c]8[Ge]([CH3])([CH3])[c]8cc(N(C)C)ccc87)cc6)[nH]c5c4)[nH]c3c2)CC1 | 
 | CN1CCN(c2ccc3nc(-c4ccc5nc(-c6ccc(OCCCCNC(=O)c7ccc8c(c7)C7(OC8=O)c8ccc(N(C)C)cc8C(C)(C)c8cc(N(C)C)ccc87)cc6)[nH]c5c4)[nH]c3c2)CC1 | Kd1 [2]: 65 ± 7 nM
 | CN1CCN(c2ccc3nc(-c4ccc5nc(-c6ccc(OCCCCNC(=O)c7ccc8c(c7)C7(OC8=O)c8ccc(N(C)C)cc8Oc8cc(N(C)C)ccc87)cc6)[nH]c5c4)[nH]c3c2)CC1 | Kd1 [2]: 14 ± 1 nM
669 ± 26 | CN1CCN(c2ccc3nc(-c4ccc5nc(-c6ccc(OCCCCNC(=O)c7ccc8c(c7)C7(OC8=O)c8ccc(N(C)C)cc8[Si](C)(C)c8cc(N(C)C)ccc87)cc6)[nH]c5c4)[nH]c3c2)CC1 | 
155 ± 14 | CNc1ccc2c(c1)C(C)(C)c1cc(NC)ccc1C21OC(=O)c2cc(C(=O)NCCCCOc3ccc(-c4nc5ccc(-c6nc7ccc(N8CCN(C)CC8)cc7[nH]6)cc5[nH]4)cc3)ccc21 | 
 | CNc1ccc2c(c1)C(C)(C)c1cc(NC)ccc1C21OC(=O)c2ccc(C(=O)NCCCCOc3ccc(-c4nc5ccc(-c6nc7ccc(N8CCN(C)CC8)cc7[nH]6)cc5[nH]4)cc3)cc21 | Kd1 [2]: 27 ± 3 nM
